Where two headings read alike, the source gives them in different places.
Tests used:
[1] = cited from earlier work
BxPC-3 = experiment: cells; type: cell-based; conditions: for MI%: BxPC-3, maximum inhibitory effect over concentration range; for CC50: Homo sapiens, BXPC-3, 72 h, read-out: LC50
Experimental: (§1) The assay was contracted and carried out by WuXi AppTec (Shanghai) Co., Ltd. The tumor cell lines CCRF-CEM, HL-60, KG-1, MOLT-4, K562, MV4-11, THP-1, HEL92.1.7, NCI-H929, RPMI-8226, Jurkat, Z138, RL, HS445, HepG2, MCF-7, Bx-PC-3, HT29, MIA PaCa-2, and SW620 were seeded at cell densities of […] 10^3 cells/well in a 96-well plate the day before drug incubation. Then, the plates were incubated for 72 h with the different concentrations of compound to be tested. After the incubation period, 50 μL of MTS was added and the tumor cells were incubated for 4 h at 37 °C. The data were read and collected by a Spectra Max 340 absorbance microplate reader. The compounds were tested in duplicate with nine serial concentrations (3.16-fold titrations with 198 μM as the highest concentration), and the data were analyzed by XLfit software.

CCRF-CEM = experiment: cells; type: cell-based; conditions: Homo sapiens, 72 h; for Emax: read-out: MI%; for CC50: read-out: LC50
Experimental: as §1

HEL92.1.7 = experiment: cells; type: cell-based; conditions: for MI%: HEL92.1.7, maximum inhibitory effect over concentration range; for CC50: Homo sapiens, HEL 92.1.7, 72 h, read-out: LC50
Experimental: as §1

HL-60 = experiment: cells; type: cell-based; conditions: Homo sapiens; for Emax: read-out: MI%; for CC50: read-out: LC50
Experimental: as §1

HS445 = experiment: cells; type: cell-based; conditions: for MI%: HS445, maximum inhibitory effect over concentration range; for CC50: Homo sapiens, Hs 445, 72 h, read-out: LC50
Experimental: as §1

HT29 = experiment: cells; type: cell-based; conditions: for MI%: HT29, maximum inhibitory effect over concentration range; for CC50: Homo sapiens, HT-29, 72 h, read-out: lC50
Experimental: as §1

HepG2 = experiment: cells; type: cell-based; conditions: Homo sapiens; for Emax: read-out: MI%
Experimental: as §1

Jurkat = experiment: cells; type: cell-based; conditions: Jurkat; for CC50: Homo sapiens, 72 h, read-out: LC50; for MI%: maximum inhibitory effect over concentration range
Experimental: as §1

K562 = experiment: cells; type: cell-based; conditions: Homo sapiens; for Emax: read-out: MI%; for CC50: read-out: LC50
Experimental: as §1

KG-1 = experiment: cells; type: cell-based; conditions: Homo sapiens, KG-1, 72 h, read-out: LC50
Experimental: as §1

MCF-7 = experiment: cells; type: cell-based; conditions: Homo sapiens, MCF7, 72 h; for CC50: read-out: LC50; for Emax: read-out: MI%
Experimental: as §1

MIA PaCa-2 = experiment: cells; type: cell-based; conditions: for CC50: Homo sapiens, MIA PaCa-2, 72 h, read-out: LC50; for MI%: MIA PaCa-2, maximum inhibitory effect over concentration range
Experimental: as §1

MOLT-4 = experiment: cells; type: cell-based; conditions: Homo sapiens; for Emax: read-out: MI%; for CC50: read-out: LC50
Experimental: as §1

MV4-11 = experiment: cells; type: cell-based; conditions: for CC50: Homo sapiens, MV4-11, 72 h, read-out: LC50; for MI%: MV4-11, maximum inhibitory effect over concentration range
Experimental: as §1

NCI-H929 = experiment: cells; type: cell-based; conditions: for CC50: Homo sapiens, NCI-H929, 72 h, read-out: LC50; for MI%: NCI-H929, maximum inhibitory effect over concentration range
Experimental: as §1

RL = experiment: cells; type: cell-based; conditions: for CC50: Homo sapiens, 72 h, read-out: LC50; for MI%: maximum inhibitory effect over concentration range
Experimental: as §1

RPMI-8226 = experiment: cells; type: cell-based; conditions: for CC50: Homo sapiens, RPMI-8226, 72 h, read-out: LC50; for MI%: RPMI-8226, maximum inhibitory effect over concentration range
Experimental: as §1

SW620 = experiment: cells; type: cell-based; conditions: for CC50: Homo sapiens, SW-620, 72 h, read-out: LC50; for MI%: SW620, maximum inhibitory effect over concentration range
Experimental: as §1

THP-1 = experiment: cells; type: cell-based; conditions: for CC50: Homo sapiens, THP-1, 72 h, read-out: LC50; for MI%: THP-1, maximum inhibitory effect over concentration range
Experimental: as §1

Z138 = experiment: cells; type: cell-based
Experimental: as §1

| SMILES | Sp isomer fold more active than the Rp isomer [1] | MI% (BxPC-3) | CC50 (BxPC-3) | CC50 (CCRF-CEM) | MI% (HEL92.1.7) | CC50 (HEL92.1.7) | CC50 (HL-60; HL-60, 72 h) | MI% (HS445) | CC50 (HS445) | MI% (HT29) | CC50 (HT29) | CC50 (Jurkat) | MI% (Jurkat) | CC50 (K562; K562, 72 h) | CC50 (KG-1) | CC50 (MCF-7) | CC50 (MIA PaCa-2) | MI% (MIA PaCa-2) | CC50 (MOLT-4; MOLT-4, 72 h) | CC50 (MV4-11) | also measured |
| --- | --- | --- | --- | --- | --- | --- | --- | --- | --- | --- | --- | --- | --- | --- | --- | --- | --- | --- | --- | --- | --- |
| CC(C)OC(=O)[C@H](C)N[P@](=O)(CO[C@H](C)Cn1cnc2c(N)ncnc21)Oc1ccccc1 [TAF, Tenofovir Alafenamide] | 10 fold |  |  |  |  |  |  |  |  |  |  |  |  |  |  |  |  |  |  |  |  |
| CC(=O)O[C@H]1C(=O)[C@@]2(C)[C@H]([C@H](OC(=O)c3ccccc3)[C@]3(O)C[C@H](OC(=O)[C@H](O)[C@@H](NC(=O)c4ccccc4)c4ccccc4)C(C)=C1C3(C)C)[C@]1(OC(C)=O)CO[C@@H]1C[C@@H]2O [PTX, paclitaxel, reference compound] |  | 42% | > 0.5 µM | 0.003 µM | 83% | 0.02 µM | 0.004 µM | 74% | 0.01 µM | 75% | 0.004 µM | 0.005 µM | 97% | 0.008 µM | 0.07 µM | 0.003 µM | 0.002 µM | 87% | 0.002 µM | 0.01 µM | Emax (CCRF-CEM; maximum inhibitory effect over concentration range): 95%; Emax (HL-60; 72 h, HL-60, maximum inhibitory effect over concentration range): 96%; Emax (HepG2; 72 h, HepG2, maximum inhibitory effect over concentration range): 54%; Emax (K562; 72 h, K562, maximum inhibitory effect over concentration range): 94%; Emax (MCF-7; MCF-7, maximum inhibitory effect over concentration range): 79%; Emax (MOLT-4; 72 h, MOLT-4, maximum inhibitory effect over concentration range): 97%; MI% (MV4-11): 99%; CC50 (NCI-H929): 0.003 µM; MI% (NCI-H929): 82%; CC50 (RL): 0.003 µM; MI% (RL): 83%; CC50 (RPMI-8226): 0.003 µM; MI% (RPMI-8226): 91%; CC50 (SW620): 0.02 µM; MI% (SW620): 96%; CC50 (THP-1): 0.03 µM; MI% (THP-1): 72%; CC50 (Z138; Homo sapiens, Z-138, 72 h, read-out: LC50): 0.002 µM; MI% (Z138; Z138, maximum inhibitory effect over concentration range): 99% |
| C[C@H](N[P@](=O)(OC[C@@H]1C[C@@H](O)[C@H](n2cnc3c(N)ncnc32)O1)Oc1ccccc1)C(=O)OCc1ccccc1 [Sp-7a] |  | 73% | 99 µM | 2.04 µM | 100% | 11 µM | 11 µM | 75% | 67 µM | 95% | 25 µM | 2.29 µM | 90% | 3 µM | 18 µM | 5.87 µM | 18 µM | 94% | 0.43 µM | 1.03 µM | Emax (CCRF-CEM): 97%; Emax (HL-60; HL-60, 72 h): 92%; CC50 (HepG2; HepG2, 72 h, read-out: LC50): 57 µM; Emax (HepG2; HepG2, 72 h): 73%; Emax (K562; K562, 72 h): 96%; Emax (MCF-7): 94%; Emax (MOLT-4; MOLT-4, 72 h): 98%; MI% (MV4-11): 100%; CC50 (NCI-H929): 16 µM; MI% (NCI-H929): 94%; CC50 (RL): 2.64 µM; MI% (RL): 92.6%; CC50 (RPMI-8226): 19 µM; MI% (RPMI-8226): 86.8%; CC50 (SW620): 35 µM; MI% (SW620): 87%; CC50 (THP-1): 66 µM; MI% (THP-1): 69% |
| CC(C)OC(=O)[C@H](C)N[P@](=O)(OC[C@H]1O[C@@H](n2ccc(=O)[nH]c2=O)[C@](C)(F)[C@@H]1O)Oc1ccccc1 [sofosbuvir] | 18 fold |  |  |  |  |  |  |  |  |  |  |  |  |  |  |  |  |  |  |  |  |
